For orientation: NOAEL means the highest tested level that showed no adverse finding. The term LOAEL denotes the lowest dose or exposure tested at which an adverse effect was seen. As a reminder, the LD50 is the dose expected to kill half of the subjects tested. High values mean lower toxicity, low ones greater toxicity.

Molecules are shown by their SMILES. “And” between values parts separate entries of the source, which are not always exact repeats. Equal values may be shown once.

Data set [1] deals with Rattus norvegicus.
The subject of data set [2] is Rattus norvegicus. Particulars: oral, gavage; for LOAEL / NOAEL: Hsd. Han: WIST.
Setting [3] is: reproduction developmental, duration: 103 weeks, oral, drinking water, generation: F0.
Setting [4] is: reproduction developmental, duration: 104 weeks, oral, drinking water.
Setting [5] is: reproduction developmental, duration: 59 days, oral, drinking water.
Where [6] appears, read: acute, oral, gavage, Sprague-Dawley.
The mark [7] stands for this setting: developmental, duration: 14 days, M/F, generation: F1, F1: Developmental: Bone: Skeletal Variations + F1: Developmental: Placenta: Placenta Weight, Absolute + F1: Developmental: Placenta: ….
The mark [8] stands for this setting: developmental, duration: 14 days, M/F, Wistar Han, generation: F1, F1: Placenta: Placenta Weight, Absolute + F1: Whole Body: Body Weight, Fetal + F1: Whole Body: Fetal Skeletal Variations.
The mark [9] stands for this setting: reproduction developmental, duration: 14 days, F, generation: P0, P0: Developmental: Uterus: Implantation + P0: Developmental: Uterus: Post-Implantation Loss + P0: Developmental: Uterus: Pre-Implantation ….
Where [10] appears, read: reproduction developmental, duration: 14 days, F, Wistar Han, generation: P0, P0: Kidney: Necropsy, Kidney Observation + P0: Small Intestine: Necropsy, Small Intestine Observation + P0: Stomach: Necropsy, Stomach ….

In the case of `O=c1[n-]c(=O)[nH]c(=O)[nH]1.[Na+]` [Monosodium cyanurate], the NOAEL in data set [1] (developmental, duration: 103 weeks, oral, drinking water) was 5380 ppm; in data set [1] (developmental, duration: 10 days, oral, gavage, COBSCD (Charles River)), > 5000 mg/kg-day; in data set [1] (reproduction developmental, duration: 13 weeks, oral, drinking water), ≥ 5380 ppm; in data set [1] (setting [3]), 1200 ppm; in data set [1] (reproduction developmental, duration: 103 weeks, oral, drinking water, generation: F1) it was 5380 ppm; in data set [1] (reproduction developmental, duration: 103 weeks, oral, drinking water, generation: F2), 5380 ppm. The NOAEL in data set [1] (setting [4]) is 2400 ppm; in data set [1] (reproduction developmental, duration: 10 days, oral, gavage, F, COBSCD (Charles River)), > 5000 mg/kg-day; in data set [1] (setting [5]), ≥ 400 ppm and ≤ 1200 ppm. The lowest-observed-adverse-effect level (LOAEL) in data set [1] (setting [3]) is 5380 ppm; in data set [1] (setting [4]), 5380 ppm; in data set [1] (setting [5]), ≥ 2000 ppm.

As for `COC(=O)CC(C)=O` [Methyl acetoacetate], the NOAEL is > 1000 mg/kg-day in data set [1] (developmental, oral, gavage, Crj:CD(SD)); 1000 mg/kg-day in data set [1] (short-term, duration: 4 weeks, oral, gavage, F, Sprague-Dawley); 1000 mg/kg-day in data set [1] (short-term, duration: 4 weeks, oral, gavage, M, Sprague-Dawley).

As to `CCCCNS(=O)(=O)c1ccccc1` [N-Butylbenzenesulfonamide], the LC50 in data set [1] (acute, Inhalation, Wistar) was > 4070 mg/m3.

`Cc1cc(N(C)C)ccc1[P+](=O)[O-].[Na+]` gave an NOAEL in data set [1] (reproduction developmental, duration: 14 days, injection, subcutaneous, F, Wistar) of 50 mg/kg-day.

For the compound `CCN(CC)c1ccc2c(c1)Oc1cc(C)c(Nc3ccc(C)cc3C)cc1C21OC(=O)c2ccccc21` (centres undefined), the LD50 in data set [1] (acute, dermal, semiocclusive, Sprague-Dawley) was > 2000 mg/kg; in data set [1] (setting [6]), > 10000 mg/kg.

As to `CCCCCCCC/C=C\CCCCCCCCN` [(Z)-9-Octadecenylamine], the LD50 in data set [1] (setting [6]) is 1180 mg/kg and 1690 mg/kg.

The compound `CC(O)CN(CCN(CC(C)O)CC(C)O)CC(C)O` (centres undefined) [1,1',1'',1'''-(Ethylenedinitrilo)tetrakis(2-propanol)] gave a median lethal dose (LD50) in data set [1] (acute, oral, gavage) of 11200 mg/kg. The no-observed-adverse-effect level (NOAEL) in data set [1] (subchronic, duration: 3 months, oral, diet, Harlan) is ≥ 600 mg/kg-day and ≤ 900 mg/kg-day.

As for `CC(C)(C)c1ccc(O)c(C(C)(C)C)c1` [2,4-Di-tert-butylphenol], the LD50 in data set [1] (acute, oral, gavage, albino) was 1500 mg/kg and 1300 mg/kg and 2100 mg/kg.

In data set [1] (subchronic, duration: 90 days, oral, gavage, Sprague-Dawley), `O=C([O-])CCCCCCCC(=O)[O-].[Li+].[Li+]` [Nonanedioic acid, dilithium salt] registered an NOAEL of 1000 mg/kg-day.

As to `C1CCCNCC1` [Hexamethyleneimine], the median lethal dose (LD50) in data set [1] (setting [6]) is 9.6 mg/kg and ≥ 8 mg/kg and ≤ 11.4 mg/kg.

`O.O.O=c1nc([O-])n(Cl)c(=O)n1Cl.[Na+]` [Sodium dichloroisocyanurate dihydrate]: the median lethal dose (LD50) in data set [1] (acute, dermal, Sprague-Dawley) was > 5000 mg/kg; in data set [1] (setting [6]), 1820 mg/kg.

For the compound `C=C(C)C(=O)OCCC(F)(F)C(F)(F)C(F)(F)C(F)(F)C(F)(F)C(F)(F)F` [2-(Perfluorohexyl)ethyl methacrylate], the lowest-observed-adverse-effect level (LOAEL) in data set [2] (setting [7]) and in data set [2] (setting [9]) was 1000 mg/kg-day throughout. Besides, the NOAEL in data set [2] (setting [7]) turned out to be 320 mg/kg-day; in data set [2] (setting [9]), 320 mg/kg-day; in data set [2] (reproduction developmental, duration: 14 days, F, generation: P0, P0: Reproductive: Ovary: Corpora Lutea), 1000 mg/kg-day. For the same compound, the LEL in data set [2] (setting [8]) was 1000 mg/kg-day; in data set [2] (setting [10]), 1000 mg/kg-day; in data set [2] (short-term, duration: 28 days, F, Crl:CD(SD), Liver: Liver Weight, Absolute + Liver: Liver Weight, Relative + Teeth: Decreased Iron Pigment, Ameloblasts (28 d) + Teeth: Teeth, Mottled (…), 25 mg/kg-day; in data set [2] (short-term, duration: 28 days, M, Crl:CD(SD), Kidney: Kidney Weight, Relative + Teeth: Decreased Iron Pigment, Ameloblasts (28 d) + Teeth: Teeth, Mottled (42 d)), 25 mg/kg-day. Moreover, the NEL came out at 320 mg/kg-day in data set [2] (setting [8]); 1000 mg/kg-day in data set [2] (developmental, duration: 14 days, M/F, Wistar Han, generation: F1, F1: Placenta: Placenta Weight, Relative + F1: Uterus: Fetuses, Dead + F1: Uterus: Fetuses, Live + F1: Whole Body: Fetal External …); 320 mg/kg-day in data set [2] (setting [10]); 1000 mg/kg-day in data set [2] (reproduction developmental, duration: 14 days, F, Wistar Han, generation: P0, P0: Ovary: Corpora Lutea + P0: Uterus: Implantation + P0: Uterus: Post-Implantation Loss + P0: Uterus: Pre-Implantation Loss + P0: Whole …); 25 mg/kg-day in data set [2] (short-term, duration: 28 days, F, Crl:CD(SD), Adrenal: Adrenal Gland Weight, Absolute + Adrenal: Adrenal Gland Weight, Absolute, Recovery + Adrenal: Adrenal Gland Weight, Relative + …); 5 mg/kg-day in data set [2] (short-term, duration: 28 days, F, Crl:CD(SD), Liver: Liver Weight, Absolute + Liver: Liver Weight, Relative + Teeth: Decreased Iron Pigment, Ameloblasts (28 d)). Moreover, the NEL in data set [2] (short-term, duration: 28 days, M, Crl:CD(SD), Adrenal: Adrenal Gland Weight, Absolute + Adrenal: Adrenal Gland Weight, Absolute, Recovery + Adrenal: Adrenal Gland Weight, Relative + …) was determined as 25 mg/kg-day; in data set [2] (short-term, duration: 28 days, M, Crl:CD(SD), Kidney: Kidney Weight, Relative + Teeth: Decreased Iron Pigment, Ameloblasts (28 d)), 5 mg/kg-day.

Source of the values: EPA's ToxValDB 9.5.
